In test [1] the test system is xenopus stromelysin 3 promoter (several TREs) coupled to luciferase in XTC cells. Kind of test: XTC cell transfection with the stromelysin 3/luciferase construct. Type of test: cell-based. The conditions noted are these: T3 10^-8 M in culture medium vs absence of T3 (basal level), FIG. 4.
Procedure: The construct is transferred into XTC cells by complexing the DNA with PEI (22 kDA, at 6 equivalents), the transfected cells are cultured in the presence (10^−8 M) or in the absence (−T3) of T3 thyroid hormone.
The transgenic constructs are tested in XTC xenopus cells in culture.
The XTC cells are obtained from carcasses of xenopus tadpoles just before metamorphosis (Pudney et al., 1973). The cells are cultured at ambient temperature, for up to 20 passages.
The cells are transfected by complexing the DNA with 22 kDa polyethyleneimine (PEI) at 6 equivalents (Ouatas et al., 1998).
The protocol makes it possible to rapidly verify the constructs and thus to verify that said constructs respond correctly to the substances, such as the T3 thyroid hormone when it is injected into the cell culture medium.
For test [2], the system named is TRE-tk-luciferase construct (rat malic enzyme TRE). Kind of test: Somatic transgenesis in xenopus dorsal muscle with TRE-tk-luciferase. It is filed as in vivo. As to conditions: T3 10^-8 M vs -T3; measured four days after treatment; FIG. 5. How it is done: The somatic transgenesis is carried out either: • by injection of 1 μl of naked DNA into the dorsal muscle of the embryo. The DNA concentration is 100 ng/μl to 5 μg/μl in 0.07 M NaCL; • by microinjection of 1 μl of DNA/PEI (polyethyleneimine) into the brain of the embryo. The DNA concentration is between 50 and 500 ng/μl in 5% glucose. 3.1. […] 3.2.

The subject of test [3] is DR4(X3)-GFP construct (consensus TRE). As to conditions: thyroid hormone 10^-8 M in the water of the aquarium; FIG. 8. How it is done:
The germinal transgenesis is carried out according to the protocol described by Kroll and Amaya (1996).

In test [4] the test system is TRE-tk-luciferase construct (rat malic enzyme TRE). The experiment in a line: Somatic transgenesis with TRE-tk-luciferase in dorsal muscle of pretreated xenopus tadpoles. As to conditions: tadpoles pretreated with perchlorate and T3 10^-11 M; then T3 10^-8 M for 48 hours vs control; FIG. 6. Type of test: in vivo.
Procedure: FIG. 6: Somatic transgenesis by injection, into the dorsal muscle of pretreated xenopus animals, of the construct TRE-tk-luciferase. The animals are pretreated for 48 hours with 10^−11 M of T3 thyroid hormone, and then rinsed for 24 hours. The animals are then transfected by injection into the dorsal muscle of 1 mg/animal of the construct TRE-tk-luciferase. The animals are then treated for 48 hours (10^−8 M) or in the absence (−T3) of thyroid hormone. Two days after treatment, the luciferase expression is measured. […] According to an alternative method, the transgenic animals according to the invention are pretreated with perchlorate for one month at 1 g/l, and are then sensitized with the test compound, such as the T3 hormone (10^−11 M), for 18 to 48 hours without food. The animals are then washed in a medium containing no T3 and are fed for 36 hours. The construct (for example TRE-tk-luciferase) is injected into the dorsal muscle of the xenopus embryo (1 mg/animal). Out of the 24 tadpoles that were pretreated and then subjected to somatic transgenesis, twelve tadpoles are treated for 48 hours with T3 thyroid hormone at 10^−8 M; the other twelve tadpoles that remain serve as a control.
Test [5] has as its system TRE-tk-EGFP construct (rat malic enzyme TRE). Kind of test: Somatic transgenesis in xenopus dorsal muscle with TRE-tk-EGFP. Type of test: in vivo. The conditions noted are these: T3 10 nM vs -T3; detected four days later; FIG. 7. How it is done:
FIG. 7: Somatic transgenesis by injection, into the dorsal muscle of xenopus, of the construct TRE-tk-EGFP. The animals are transfected by injection into the dorsal muscle of […] of the construct TRE-tk-EGFP. The animals are then treated for 48 hours in the presence (+T3 10 nM) or in the absence (−T3) of T3 thyroid hormone. […] The somatic transgenesis is carried out either: • by injection of 1 μl of naked DNA into the dorsal muscle of the embryo. The DNA concentration is 100 ng/μl to 5 μg/μl in 0.07 M NaCL; • by microinjection of 1 μl of DNA/PEI (polyethyleneimine) into the brain of the embryo. The DNA concentration is between 50 and 500 ng/μl in 5% glucose. 3.3. The TRE-tk-EGFP construct was injected into the dorsal muscle of a xenopus embryo ([…]). Half the animals are treated with T3 thyroid hormone at 10 nM.

The structures appear in SMILES notation. Entries after “also recorded” stand apart in the source; their conditions may differ.

`N[C@@H](Cc1cc(I)c(Oc2ccc(O)c(I)c2)c(I)c1)C(=O)O` [T3 thyroid hormone, Tri-iodothyronine]: the “expression of the luciferase reporter protein” value in test [1] is on record as “greater expression”. In addition, the “expression of the reporter protein (luciferase)” value in test [2] and in test [4] was “much greater expression” throughout. In addition, the “emission of fluorescence (GFP)” value in test [3] was “emission of fluorescence throughout the nervous system and in the limb buds”. Moreover, the “expression of the reporter protein (EGFP)” value in test [5] was “much greater expression; also recorded: bioluminescence is visible in the cells of the treated animal”.
